This note sets out measurements from ChEMBL document CHEMBL2434833, “Optimization of benzodiazepinones as selective inhibitors of the X-linked inhibitor of apoptosis protein (XIAP) second baculovirus IAP repeat (BIR2) domain” (J Med Chem, 2013).

Data set [1] in a line: Tmax in C57 mouse at 10 mg/kg, po. It is filed as ADME, organism-based. The arrangement: dose 10 mg/kg, route oral. To be noted: in vivo.
A short description of data set [2]: Oral bioavailability in C57 mouse at 10 mg/kg. The class given is ADME, organism-based. To be noted: in vivo.
Data set [3] can be described thus: AUC in C57 mouse at 10 mg/kg, po. It is filed as ADME, organism-based. The arrangement: dose 10 mg/kg, route oral. To be noted: plasma.
A short description of data set [4]: Cmax in C57 mouse at 10 mg/kg, po. The class given is ADME, organism-based. On the set-up: dose 10 mg/kg, route oral. To be noted: in vivo.
In a further data set the test system is Liver microsomes. To be noted: human, up to 10 µM.
A short description of data set [5]: Drug uptake in tumor of nude mouse xenografted with human LOX cells at 200 mg/kg, po measured at 8 hrs. To be noted: read-out: Drug uptake. It is filed as ADME, organism-based, Neoplasm. On the set-up: dose 200 mg/kg, route oral.
Data set [6] can be described thus: Plasma concentration in nude mouse xenografted with human LOX cells at 200 mg/kg, po measured at 8 hrs. The arrangement: dose 200 mg/kg, route oral. The class given is ADME, organism-based. On the technique in general: Xenograft models place foreign cells or tissue in a host animal.
The nature of data set [7]: Plasma concentration in nude mouse xenografted with human LOX cells at 100 mg/kg, po measured at 8 hrs. The class given is ADME, organism-based. On the set-up: dose 100 mg/kg, route oral.
A short description of data set [8]: Drug uptake in tumor of nude mouse xenografted with human LOX cells at 100 mg/kg, po measured at 8 hrs. It is filed as ADME, organism-based, Neoplasm. On the set-up: dose 100 mg/kg, route oral. To be noted: read-out: Drug uptake.

With `CN[C@@H](C)C(=O)N[C@@H]1C(=O)N(Cc2c(OC)ccc3ccccc23)c2ccc(C#N)cc2N(C(C)=O)[C@H]1C.Cl`, the Tmax in data set [1] was 4 h. In data set [2], this compound returned a bioavailability of 8%. The AUC in data set [3] worked out at 5980 ng·h/mL. This compound also returned a Cmax in data set [4] of 873 ng/mL. Further, the Stability result in the data set on Liver microsomes is “Stable”.
For the compound `CN[C@@H](C)C(=O)N[C@@H]1C(=O)N(Cc2c(C)ccc3ccccc23)c2ccc(C#N)cc2N(C(C)=O)[C@H]1C.Cl`, the Tmax in [1] amounted to 0.25 h. In data set [2], this compound yielded a bioavailability of 28%. Besides, the concentration at 8 h in [5] was 7.7 µM; in data set [6], 5 µM. For the same compound, the area under the curve (AUC) in data set [3] came out at 7870 ng·h/mL. Also, the highest level in [4] (Cmax) was 823 ng/mL.
On to `CN[C@@H](C)C(=O)N[C@H](C(=O)N1CCC[C@H]1c1nc(C(=O)c2ccc(F)cc2)cs1)C1CCCCC1` [LCL-161], for which the concentration at 8 h turned out to be 3.3 µM in data set [7] and 18.4 µM in data set [8].

The term Tmax denotes the time at which the peak concentration occurs. In general, bioavailability refers to the share of a dose that reaches the circulation, judged against a reference dose that is usually intravenous. A lower bioavailability goes with poor availability. Broadly, the AUC is the area under the concentration-time curve, a measure of exposure. By Cmax is commonly meant the peak of the concentration-time curve.
